Source: patent US12319652B2, “Salts and solid forms of (R)-1-(5-methoxy-1H-indol-1-yl)-N,N-dimethylpropan-2-amine” (priority 2021, dated 2025)

Key:
[1] = Binary solvent evaporation crystallization of Compound 1 HCl
Experimental: A binary solvent evaporation crystallization panel was performed. Separate portions of Compound 1 HCl 50 mg) were dissolved in a primary solvent of water (500 μl per sample) and a secondary solvent—one of either acetone (250 μl, A), acetonitrile (250 μl, B), THF (250 μl, C) and methanol (250 μl, D).
Each vial was capped with aluminium foil, pieced and allowed to stand undisturbed until the evaporation was completed. Experimental details are included in Table 109.

[2] = Thermocycling of compound 1 Fumarate; settings: computed by software from the powder pattern
Experimental: Thermocycling in different solvents can promote the formation of alternative polymorphic forms. compound 1·Fumarate was heated and cooled between 20° C. and 75% of the relevant solvent b.p. at 0.5° C./minute, for 5 consecutive cycles; a 10-minute dwell was incorporated at each inflection (refer to Table 63). Thermocycling is ripening technique that encourages particle size enlargement and promotes the evolution of the API into a stable phase. […] The products were analysed both wet and dry to determine if form changes had occurred, all products were consistent with monofumarate Form A (refer to FIGS. 16-19 and FIGS. 88-102).
Compound 1 Fumarate (75 mg, 1 wt) was weighed out in to 4 separate vials and the corresponding solvents (750 ul, 10 vol) from Table were charged.
The suspensions underwent constant amplitude thermocycling at ±0.5° C./min up to 75% of the relevant solvent b.p. and −0.5° C./min down to 20° C. The thermocycle was repeated 5 times (FIGS. 16-19 and 88-102).

[3] = Heat-up/cool down (HUCD) crystallization of compound 1 Fumarate in different solvents
Excerpt: Crystallisation from different solvents can be a useful method to investigate alternative polymorphic forms. This crystallisation screen of compound 1·Fumarate could also be used to identify potential conditions for future scale-up crystallisations to control the form outcome. Amorphous compound 1 fumarate (batch 1) was crystallised from several solvents (refer to Table 64). Only entries N1 AND N2 remained in solution when cooled down. The XRPD diffractograms of the rest, which delivered solids, matched monofumarate Form A when oven dried (FIG. 103).
Separate portions of compound 1 Fumarate (75 mg, 1.0 wt.) were charged to separate vessels. The appropriate solvents (750 μl) were charged to the relevant vessels and subsequent charges of the appropriate co-solvent were made to accomplish dissolution. The solutions were cooled to 18 to 23° C. and allowed to stand undisturbed, until crystallization was judged complete. After this time the products were isolated by centrifugation, washed with recycled maturation solvent, dried under reduced pressure at 40° C. and analyzed by XRPD for evidence of alternative crystalline forms (FIG. 103).

[4] = thermocycling in MEK/Heptane (1 to 1)
[5] = thermocycling in Toluene 100.0%
[6] = Heptane (5 vol) + 2-Methyl THF 380 μl
[7] = Heptane (5 vol) + 2-Propanol 120 μl
[8] = Heptane (5 vol) + Acetone 200 μl
[9] = Heptane (5 vol) + Butanol 100 μl
[10] = Heptane (5 vol) + Dichloromethane 160 μl
[11] = Heptane (5 vol) + Diethyl ether 800 μl
[12] = Heptane (5 vol) + Dioxane 240 μl
[13] = Heptane (5 vol) + Ehtyl acetate 420 μl
[14] = Heptane (5 vol) + Ethanol 180 μl
[15] = Heptane (5 vol) + Isopropyl acetate 660 μl
[16] = Heptane (5 vol) + Methylethyl ketone 100 μl
[17] = Heptane (5 vol) + Tetrahydrofuran 300 μl
[18] = no precipitant solvent (—), Toluene 800 μl

Question: With `COc1ccc2c(ccn2C[C@@H](C)N(C)C)c1.Cl` [Compound 1 HCl] as the compound, how does the “Observations (t = 14 days @ ambient)” value ([1]; A: Water 10.0 vol + Acetone 250 μL) read?
Answer: The value was “Solid”.

Question: What about the “Observations (t = 14 days @ ambient)” value ([1]; B: Water 10.0 vol + Acetonitrile 250 μL) of the same compound?
Answer: Its value is “Solid”.

Question: What about the “Observations (t = 14 days @ ambient)” value ([1]; C: Water 10.0 vol + THF 250 μL) of the same compound?
Answer: The value was “Solid”.

Question: And the “Observations (t = 14 days @ ambient)” value ([1]; D: Water 10.0 vol + Methanol 250 μL)?
Answer: The value was “Solid”.

Question: For `COc1ccc2c(ccn2C[C@@H](C)[NH+](C)C)c1.O=C(O)/C=C/C(=O)O` [Compound 1 fumarate, (R)-1-(5-methoxy-1H-indol-1-yl)-N,N-dimethylpropan-2-amine fumarate], which “XRPD crystallinity (dry, %)” value [2, 4] is on record?
Answer: Its value is 83.2%.

Question: What about the “XRPD crystallinity (wet, %)” value [2, 4] of the same compound?
Answer: The value was 83.4%.

Question: What about the “XRPD crystallinity (dry, %)” value [2, 5] of the same compound?
Answer: The value was 68.1%.

Question: And the “XRPD crystallinity (wet, %)” value [2, 5]?
Answer: Its value is 52.4%.

Question: And the “XRPD crystallinity (dry, %)” value ([2]; thermocycling in iPAC 100.0%)?
Answer: The value was 82.7%.

Question: What about the “XRPD crystallinity (wet, %)” value ([2]; thermocycling in iPAC 100.0%) of the same compound?
Answer: The value was 80.7%.

Question: What about the “XRPD crystallinity (dry, %)” value ([2]; thermocycling in tBME 100.0%) of the same compound?
Answer: Its value is 81.0%.

Question: What about the “XRPD crystallinity (wet, %)” value ([2]; thermocycling in tBME 100.0%) of the same compound?
Answer: Its value is 79.0%.

Question: And the “Form XRPD (oven dried)” value [3, 6]?
Answer: The value was “Pattern 1”.

Question: And the “Observations (t = 0 @ T = 20° C.)” value [3, 6]?
Answer: Its value is “suspension”.

Question: And the “Observations (t = 3 d @ 20° C.)” value [3, 6]?
Answer: Its value is “suspension”.

Question: And the “Form XRPD (oven dried)” value [3, 7]?
Answer: Its value is “Pattern 1”.

Question: What about the “Observations (t = 0 @ T = 20° C.)” value [3, 7] of the same compound?
Answer: The value was “suspension”.

Question: What about the “Observations (t = 3 d @ 20° C.)” value [3, 7] of the same compound?
Answer: Its value is “suspension”.

Question: And the “Form XRPD (oven dried)” value [3, 8]?
Answer: Its value is “Pattern 1”.

Question: What about the “Observations (t = 0 @ T = 20° C.)” value [3, 8] of the same compound?
Answer: The value was “suspension”.

Question: What about the “Observations (t = 3 d @ 20° C.)” value [3, 8] of the same compound?
Answer: The value was “suspension”.

Question: And the “Form XRPD (oven dried)” value [3, 9]?
Answer: The value was “Pattern 1”.

Question: What about the “Observations (t = 0 @ T = 20° C.)” value [3, 9] of the same compound?
Answer: Its value is “suspension”.

Question: What about the “Observations (t = 3 d @ 20° C.)” value [3, 9] of the same compound?
Answer: Its value is “suspension”.

Question: And the “Form XRPD (oven dried)” value ([3]; Heptane (5 vol) + CPME 800 μl)?
Answer: The value was “Pattern 1”.

Question: And the “Observations (t = 0 @ T = 20° C.)” value ([3]; Heptane (5 vol) + CPME 800 μl)?
Answer: The value was “gum”.

Question: What about the “Observations (t = 3 d @ 20° C.)” value ([3]; Heptane (5 vol) + CPME 800 μl) of the same compound?
Answer: The value was “gum”.

Question: And the “Observations (t = 0 @ T = 20° C.)” value [3, 10]?
Answer: Its value is “suspension”.

Question: And the “Observations (t = 3 d @ 20° C.)” value [3, 10]?
Answer: The value was “suspension”.

Question: And the “Form XRPD (oven dried)” value [3, 11]?
Answer: The value was “Pattern 1”.

Question: And the “Observations (t = 0 @ T = 20° C.)” value [3, 11]?
Answer: Its value is “gum”.

Question: And the “Observations (t = 3 d @ 20° C.)” value [3, 11]?
Answer: Its value is “gum”.

Question: And the “Observations (t = 0 @ T = 20° C.)” value [3, 12]?
Answer: Its value is “suspension”.

Question: And the “Observations (t = 3 d @ 20° C.)” value [3, 12]?
Answer: Its value is “suspension”.

Question: What about the “Form XRPD (oven dried)” value [3, 13] of the same compound?
Answer: Its value is “Pattern 1”.

Question: And the “Observations (t = 0 @ T = 20° C.)” value [3, 13]?
Answer: Its value is “suspension”.

Question: What about the “Observations (t = 3 d @ 20° C.)” value [3, 13] of the same compound?
Answer: The value was “suspension”.

Question: What about the “Form XRPD (oven dried)” value [3, 14] of the same compound?
Answer: The value was “Pattern 1”.

Question: And the “Observations (t = 0 @ T = 20° C.)” value [3, 14]?
Answer: Its value is “suspension”.

Question: What about the “Form XRPD (oven dried)” value [3, 15] of the same compound?
Answer: The value was “Pattern 1”.

Question: What about the “Observations (t = 0 @ T = 20° C.)” value [3, 15] of the same compound?
Answer: Its value is “suspension”.

Question: And the “Observations (t = 3 d @ 20° C.)” value [3, 15]?
Answer: Its value is “suspension”.

Question: And the “Form XRPD (oven dried)” value ([3]; Heptane (5 vol) + MIBK 420 μl)?
Answer: The value was “Pattern 1”.

Question: What about the “Observations (t = 0 @ T = 20° C.)” value ([3]; Heptane (5 vol) + MIBK 420 μl) of the same compound?
Answer: The value was “suspension”.

Question: And the “Observations (t = 3 d @ 20° C.)” value ([3]; Heptane (5 vol) + MIBK 420 μl)?
Answer: The value was “suspension”.

Question: What about the “Form XRPD (oven dried)” value [3, 16] of the same compound?
Answer: The value was “Pattern 1”.

Question: And the “Observations (t = 3 d @ 20° C.)” value [3, 16]?
Answer: The value was “suspension”.

Question: What about the “Form XRPD (oven dried)” value [3, 17] of the same compound?
Answer: The value was “Pattern 1”.

Question: What about the “Observations (t = 0 @ T = 20° C.)” value [3, 17] of the same compound?
Answer: The value was “suspension”.

Question: What about the “Observations (t = 3 d @ 20° C.)” value [3, 17] of the same compound?
Answer: Its value is “suspension”.

Question: And the “Observations (t = 0 @ T = 20° C.)” value ([3]; Water (5 vol) + Ethanol 80 μl)?
Answer: The value was “solution”.

Question: And the “Form XRPD (oven dried)” value [3, 18]?
Answer: The value was “Pattern 1”.

Question: What about the “Observations (t = 0 @ T = 20° C.)” value [3, 18] of the same compound?
Answer: Its value is “gum”.

Question: What about the “Observations (t = 3 d @ 20° C.)” value [3, 18] of the same compound?
Answer: Its value is “gum”.
